# Patent publication US8236339B2, “Therapeutic delivery of carbon monoxide” (priority 2001, dated 2012)
# “Also recorded” adds a separate entry of the source.
# Assays:
# [1] = Systemic blood pressure and heart rate in anaesthetised Sprague-Dawley rats; assay type: in vivo, rat; settings: for HR, 60 μmol.kg^−1 / MAP, 60 μmol.kg^−1: directly after i.v. bolus 60 μmol/kg (cumulative 100); for HR, Baseline / MAP, Baseline: just before infusion of the compound
# Description: Adult male Sprague-Dawley rats (280-350 g, 8-10 weeks of age) were bred in-house at the Northwick Park Institute for Medical Research (Harrow, UK). Rats were housed in groups of 3 in cages under a 12 h cycle of day/night, with free access to drinking water and fed ad libitum. All surgical procedures were performed in compliance with U.K. Home Office regulations. Rats were anaesthetised in a polycarbonate chamber in a stream of Enflurane™ (Abbot, UK) in oxygen before being transferred onto a mask and continuously supplied with Enflurane™ throughout the experiment with an anaesthetic machine (Aimed, UK). During the surgical procedure the rats were kept at a constant body temperature of 37° C. using a heat pad positioned underneath the operating surface. Specially designed femoral artery and venous catheters were then surgically implanted as previously described (see ref. 40). The catheter in the artery was connected via a luer connector and a three-way tap to a pressure transducer (Gould model P23ID, Statham, USA) for continuous mean arterial pressure (MAP) and heart rate (HR) monitoring. A purpose-built tail-cuff pressure transducer (ADInstruments, UK) was also placed on the tail of the rat and pressure transducer and tail cuff were connected to a polygraph recorder (Grass, Model 7D, Astra-med, UK) pre-calibrated in millimeters of mercury (mmHg). An analogue output provided data for a computer-based data acquisition system (PowerLab™, ADInstruments, UK). The computer-based system was set to record mean arterial pressure (MAP), in mmHg, and heart rate (HR), in beats/min (bpm), for the duration of the experiment. […] Once a stable pressure had been reached, each catheter was flushed with saline containing heparin and no further changes were made to the anaesthetic supply. Ru(CO)3Cl(glycinato) (CO-RM-3) was prepared in stock solutions of 20, 60 and 120 μmoles·ml^−1 by solubilizing the compound in saline. […] CO-RM-3 (or the negative control) was then infused into the animal via the femoral vein catheter as a bolus so that the final concentration infused was 10, 30 or 60 μmoles·kg^−1 body weight. Throughout the experiment MAP and HR were continuously recorded and monitored. Although concentrations of 10, 30 and 60 μmoles·kg^−1 were infused into each animal, the resulting concentrations in the animal were cumulative. Therefore, the final concentration attained in the animal was 10, 40 and 100 μmoles·kg^−1, respectively.
# The results are presented in Table 2, where the data shown represents samples taken at baseline (just before infusion of the compound) and directly after administration of 10, 30 and 60 μmoles·kg^−1 of the compound. All data are mean i SEM. n=3 independent experiments. *P<0.05 vs. baseline.
# isolated rat hearts = settings: for effect on L-NAME-mediated vasoconstriction / rise in CPP: L-NAME 25 μM perfusion
# Description: Langendorff heart preparations were performed using male Lewis rats (300-350 g) as previously described by our group (35). […] (pH 7.4). Coronary perfusion pressure (CPP), a parameter indicative of coronary vessel contractility, was continuously measured by a pressure transducer connected to the aortic cannula and data analyzed with an Acknowledge software (BIOPAC System Inc.).
# Hearts removed either from control rats (vehicle-treated) or from animals that were pre-treated with the heme oxygenase-1 inducer hemin (75 μmol/kg, i.p.) the day before, were initially equilibrated for 20 min on the Langendorff apparatus and then perfused with L-NAME (25 μM final concentration) to elicit vasoconstriction. The extent of CPP increase by L-NAME was also monitored over time in hemin-treated animals that received a heme oxygenase inhibitor (SnPPIX, 40 μmol/kg) 1 h prior to heart excision and in control hearts that were perfused with buffer supplemented with [Mn2(CO)10] (13 μM final concentration). Since [Mn2(CO)10] releases CO only by photodissociation, Krebs buffer containing [Mn2(CO)10] was exposed to a cold light source immediately before entering the aortic cannula.
# [2] = L-NAME-induced increase in mean arterial pressure in anaesthetised Lewis rats; assay type: in vivo, rat; settings: L-NAME 30 μmol/kg i.v.; [Ru(CO)3Cl2]2 60 μmol/kg i.v. 1 h before; hemin 75 μmol/kg i.p. 24 h before; SnPPIX 40 μmol/kg i.p.
# Description: Lewis rats (280-350 g) were anaesthetised by intramuscular injection of 1 ml/kg Hypnorm (fentanyl 0.315 mg/ml and fluanisone 10 mg/ml) followed 5 min later by an intraperitoneal injection of 5 mg/kg diazepam. Specially designed femoral artery and venous catheters were then surgically implanted as previously described (40). The arterial cannula was connected to a Grass pressure transducer and blood pressure monitored continuously using a polygraph recorder. Experiments were conducted on anaesthetized animals and recordings were made within 30 min of the surgical procedure.
# Control rats (vehicle-treated) and animals that were pre-treated with hemin (75 μmol/kg, i.p) 24 h prior to blood pressure monitoring were then administered with an intravenous injection of 30 μmol/Kg L-NAME to elicit an increase in mean arterial pressure. The extent of blood pressure increase by L-NAME was also monitored over time in hemin-treated animals that received SnPPIX (40 μmol/kg, i.p.) and in control rats previously injected with [Ru(CO)3Cl2]2 (60 μmol/kg, i.v.). In these two groups, SnPPIX or [Ru(CO)3Cl2]2 were administered to animals 1 h prior to L-NAME injection.
# [3] = tested on: Rat vascular smooth muscle cells; assay: Cell viability of vascular smooth muscle cells (colorimetric assay); assay type: cell-based
# Description: Rat vascular smooth muscle cells were obtained from the Coriell Cell Repository (Camden, N.J., USA) and grown in Dulbecco's […] (MEM) supplemented with 20% foetal calf serum, 2×MEM vitamins, 2×MEM non-essential and essential amino acids, penicillin (100 units/ml) and streptomycin (0.1 mg/ml). Confluent cells were treated with different concentrations of metal carbonyl (introduced as DMSO solution—see section B) for various times and cell viability was assessed using a colorimetric assay kit from Promega (Madison, Wis., USA) as previously described (47) after 3 or 24 h incubation, or after 3 h exposure to the agents followed by 21 h incubation in complete media. Results are expressed as the mean±s.e.m. of 6 independent experiments and differences were considered statistically significant at P<0.05 (*).
# [4] = tested on: deoxymyoglobin (deoxy-Mb); assay: Myoglobin assay: conversion of deoxy-Mb to MbCO on direct addition of metal carbonyl; assay type: biochemical, horse; settings: for MbCO formation / CO release when added directly to deoxy-Mb solution: direct addition to myoglobin solution (66 μM), no light
# Description: The release of CO from metal carbonyl complexes was assessed spectrophotometrically by measuring the conversion of deoxymyoglobin (deoxy-Mb) to carbonmonoxy myoglobin (MbCO). MbCO has a distinctive absorption spectrum between 500 and 600 nm, and changes at 540 nm were used to quantify the amount of CO liberated. Myoglobin solutions (66 μM final concentration) were prepared freshly by dissolving the protein in 0.04 M phosphate buffer (pH 6.8). Sodium dithionite (0.1%) was added to convert myoglobin to deoxy-Mb prior to each reading. All the spectra were measured using a Helios a spectrophotometer.
# Various metal carbonyl complexes were tested for their ability to elicit MbCO formation when added directly to a deoxy-Mb solution. To different extents, [Ru(CO)3Cl2]2, [Ru(CO)2(DMSO)2Cl2], [Ru(CO)3Cl2(cytosine)] and […] all released CO when added directly to the Mb solution.
# The metal carbonyl complex was solubilized in DMSO (9.7 mM stock solution), aliquots of 2 to 32 μl were added directly to 1 ml of deoxy-Mb solutions (66 μM) and absorption spectrum determined immediately after mixing the samples by inversion.
# [5] = tested on: aortic rings pre-contracted with phenylephrine; assay: Relaxation of isolated aortic rings pre-contracted with phenylephrine; set-up: species or system rat; settings: for vasodilatory effect on pre-contracted aortic rings (in words): consecutive additions; for % Relaxation, 1st addition / % Relaxation, 2nd addition / % Relaxation, 3rd addition: cumulative doses, phenylephrine 3 μM
# Description: Transverse ring sections of thoracic aorta were isolated from male Lewis rats and suspended under a 2 g tension in an organ bath containing oxygenated Krebs-Henseleit buffer at 37° C. as previously described (23). The relaxation response to cumulative doses of metal carbonyl (dissolved in DMSO—see section 2) was assessed in aortic rings pre-contracted with phenylephrine (3 μM). Control rings were similarly treated by adding equal doses of DMSO (vehicle) to the organ bath.
# [6] = directly after i.v. bolus 10 μmol/kg
# [7] = directly after i.v. bolus 30 μmol/kg (cumulative 40)
Compound,effect on L-NAME-induced increase in blood pressure [2],MbCO formation / CO release when added directly to deoxy-Mb solution [4],vasodilatory effect on pre-contracted aortic rings (in words) [5],"% Relaxation, 1st addition [5]","% Relaxation, 2nd addition [5]","% Relaxation, 3rd addition [5]",also measured
"CS(C)=O.CS(C)=O.CS(C)=O.CS(C)=O.[Cl][Ru][Cl] [Cis-RuCl2(DMSO)4, reference compound]",,,,,,,"effects on HR or MAP (in words) ([1]; 10, 30 or 60 μmoles·kg^−1): no significant effects on either HR or MAP; marginal increase in MAP during the administration of each bolus ([1]; believed to be a volume effect, also seen with saline): 5.5±1 mmHg; HR, 10 μmol.kg^−1 [1, 6]: 255 ± 6 bpm; MAP, 10 μmol.kg^−1 [1, 6]: 82 ± 4 mmHg; HR, 30 μmol.kg^−1 [1, 7]: 256 ± 8 bpm; MAP, 30 μmol.kg^−1 [1, 7]: 79 ± 5 mmHg; HR, 60 μmol.kg^−1 [1]: 256±9 bpm; MAP, 60 μmol.kg^−1 [1]: 81±4 mmHg; HR, 60 μmol.kg^−1 ([1]; listed as Cts-RuCl2(DMSO)4): 256 ± 9 bpm; MAP, 60 μmol.kg^−1 ([1]; listed as Cts-RuCl2(DMSO)4): 81± 4 mmHg; HR, Baseline [1]: 257±7 bpm; MAP, Baseline [1]: 80±2 mmHg; HR, Baseline ([1]; listed as Cts-RuCl2(DMSO)4): 257 ± 7 bpm; MAP, Baseline ([1]; listed as Cts-RuCl2(DMSO)4): 80 ± 2 mmHg"
"COC(=O)[C@@H](N)CCCNC(=N)N[N+](=O)[O-] [L-NAME, N^G-nitro-L-arginine methyl ester]",rapid and significant increase in blood pressure,,,,,,"maximum increase in CPP (isolated rat hearts; L-NAME 25 μM, after 30 min): 3 fold"
"O.[Cl][Ru]([Cl])[Cl] [RuCl3, ruthenium(III) chloride hydrate, reference compound]",,,,,,,decrease in cell viability over time ([3]; equivalent molar concentrations of ruthenium): did not cause any appreciable decrease in cell viability
"C=Cc1c2[n-]c(c1C)/C=c1\[n-]/c(c(C)c1C=C)=C\c1[n-]c(c(CCC(=O)O)c1C)C=c1[n-]/c(c(C)c1CCC(=O)O)=C\2.[Sn+4] [SnPPIX, tin protoporphyrin IX]",totally reversed,,,,,,effect on L-NAME-mediated vasoconstriction / rise in CPP (isolated rat hearts): the effect of hemin was completely reversed
"[C-]#[O+].[C-]#[O+].[C-]#[O+].[C-]#[O+].[C-]#[O+].[C-]#[O+].[Cl][Ru][Cl].[Cl][Ru][Cl] [[Ru(CO)3Cl2]2, tricarbonyldichlororuthenium (II) dimer]",markedly suppressed,released CO,rapid and significant vasodilatation,49.9 ± 2.7 %,66.2 ± 3.2 %,74.1 ± 4.1 %,"moles of CO liberated for each mole of compound ([4]; 9.7 mM DMSO stock, 2 to 32 μl added to 1 ml deoxy-Mb 66 μM, linear regression of MbCO saturation curve): approximately 0.7 moles; cell viability ([3]; 3 h exposure followed by additional 21 h incubation in complete medium): well preserved; cytotoxicity ([3]; 3 h treatment, 0-420 μM final concentration): did not promote any detectable cytotoxicity; loss in cell viability ([3]; prolonged exposure (24 h), very high concentrations (>400 μM)): > 50%; extent of relaxation after the first addition, more than control ([5]; 222 μM final concentration): 45%; phenylephrine-induced contraction after extensive washing ([5]; after extensive washing, restored in control but not in treated vessels): produces long-lasting effects"
"[Fe(SPh)2(2,2′-bipyridine)(CO)2]",,did not release any detectable CO to myoglobin; also recorded: No MbCO was detected,very effective in promoting vasorelaxation,50.8%,60.5%,75%,
[Fe(SPh)2(H2NCH2CH2NH2)(CO)2],,No MbCO was detected,less evident,11%,24.6%,29.3%,
[Ru(CO)2(DMSO)2Cl2],,released CO,produced vasodilatation although the effect was less pronounced compared to [Ru(CO)3Cl2]2,1.6%,16%,35%,
[Ru(CO)3Cl2(cytosine)],,released CO,did not demonstrate any effect,3.2%,10.3%,12.6%,
manganese chloride,,,,,,,effect on L-NAME-mediated vasoconstriction / rise in CPP (isolated rat hearts): had no effect on myocardial CPP
